Patent publication US11834678B2, “Hematopoietic stem cells with improved properties” (Yeda Research and Development Co. Ltd., priority 2017, dated 2023)

Legend:
HSPCs = assay: HSPC levels in bone marrow after 6 days of NAC injections (FACS); assay type: in vivo; conditions: CD74−/− mice; NAC 50 mg/kg i.p. for 6 days; compared to WT levels
Protocol: FIGS. 8A-L illustrate that CD74 regulates stem cell retention. (FIGS. 8A-C) FACS staining of HSPCs from WT and CD74^−/− mice for Ki-67. Results are represented as: (FIG. 8A) Percentage of Ki-67^+ from CD34^−LSK and percentage of Ki-67^+ from CD34^+ LSK, (FIG. 8B) percentage of CD34−LSK Ki-67− and CD34−LSK Ki-67+ from total BM cells and (FIG. 8C) percentage of CD34^+ LSK Ki-67^− and CD34^+ LSK Ki-67^+ from total BM cells, n=15. (FIGS. 8D-E) Mice were fed with 0.8 mg/ml BrdU in the drinking water for 3 days and BrdU incorporation was analyzed by FACS. Results are represented as: (FIG. 8D) % BrdU^+ in LSK; (FIG. 8E) percentage of LSK BrdU^− and percentage of LSK BrdU^+ from total BM cells, n=12-14. (FIG. 8F-G) FACS staining of HSPCs from WT and CD74^−/− mice for ROS. Results are represented as number of ROS high in million cells, n=9. (FIGS. 8H-I) percentage of HSPCs after 6 days of NAC injections mg/ml, n=5. (FIG. 8J) FACS staining of HSPCs from WT and CD74^−/− mice for Annexin V, n=10-12, and after 24 hours in hypoxia (FIG. 8K), n=4-5. (FIG. 8L) Ratio of Annexin V+CD74^−/− to WT of HSPCs in hypoxia and normoxic conditions. Bars show SEM. Unpaired t-test two tailed *<0.05 **<0.01.
Electron transfer along the mitochondrial respiration chain induces the formation of ROS (Kobayashi and Suda, 2012). […]

HSPC = conditions: after a single injection; cited from earlier work

Row | Compound | levels of HSPCs (HSPCs) | time to mobilization of HSPC (HSPC)
1 | CC(=O)N[C@@H](CS)C(=O)O [NAC, N-acetyl-L-cystein] | partially reduced | –
2 | Zymosan | – | ≤ 1 h
